Legend:
Experiment in all cases: field test of gametocidal activity (sterilisation of anthers)
[1] = system: Winterweizens Sorte Polesskaya-70; format: in vivo, Winterweizen; settings: V. Periode, 2%ige wäßrige Emulsion, 16 kg/ha; for Prozentsatz des Ansetzens bei freier Bestäubung: control = 100
Text: (§1) Die gametozide Aktivität der erfindungsgemäßen Sterilisationsmittel war in Feldversuch in verschiedenen bodenklimatischen Zonen mit Teilstücken von 10 m^2 Größe in drei-- bis viermaliger Wiederholung nachgewiesen. Jedes Sterilisationsmittel wurde mindestens 5 Jahre lang geprüft.
(§2) Die Entwicklung der Perioden der Organogenese wird zytologisch überwacht. Die Behandlung von Pflanzen mit dem Sterilisationsmittel erfolgt am Anfang der fünften Periode der Organogenese nach Kupermann.
(§3) Mit dem Ahrenschieben verwirklicht man die Isolierung von Hauptähren und anderen Stockwerken in Pergamentbeuteln. Bei Weizen und Tritikale werden Einzelisolatoren verwendet. Bei Roggen schließt man je 1 Ähre von 5 bis 7 verschiedenen nebeneinander befindlichen Pflanzen in einen gemeinsamen Isolator ein. Bei Hirse wird jede Rispe getrennt isoliert. Der Sterilitätsprozentsatz (X) für Weizen, Roggen, Tritikale und Hirse wird nach der Formel [formula]
(§4) Samen von unbehandelten Kontrollpflanzen ermittelt.
(§5) Die Kornzahl in nicht isolierten Ähren von Kontrollpflanzen wird bedingt für 100% Ansetzen bei freier Bestäubung angenommen.
(§6) Um zuverlässige Angaben zu erhalten, verwendet man 20 bis 25 Isolatoren jeder Wiederholung für Weizen und Tritikale, 10 bis 15 Isolatoren jeder Wiederholung für Roggen und Hirse.
Pflanzen des Winterweizens Sorte Polesskaya-70 behandelt man in der V. Periode der Organogenese durch Zerstäubund einer 2%igen wäßrigen Emulsion von Phthalsäurediäthylester, Phthalsäurediallylester, Phthalsäuredihexylester, Kaliumsalz der 2-Methyl-3-zyklohexenkarbonsäure, Ammoniumsalz der 2-Methyl-3-zyklohexenkarbonsäure mit Hilfe einer Rückenspritze. Die Emulsion enthält 0,01 Masse% Tetrahydrofuran und 0,1 Masse% C12 -C14 -Kalziumalkylbenzolsulfonat.
Der Verbrauch an Präparat beträgt 16 kg/ha. Als Kontrolle dienen Pflanzen, behandelt mit dem Verdünner ohne Sterilisationsmittel.

[2] = system: Hirse Sorte K-9693 Kormovoe I; format: in vivo; settings: V. Periode, 1%ige wäßrige Emulsion, 8 kg/ha; for Prozentsatz des Ansetzens der Körner bei freier Bestäubung: control = 100
Text: as §1, §2, §3, §4, §5, §6
Pflanzen der Hirse Sorte K-9693 Kormovoe I werden in der V. Periode der Organogenese (nach Kupermann) mit einer 1%igen wäßrigen Emulsion von Ammoniumsalz der 2-Methyl-3-zyklo- nexenkarbonsäure, Phthalsäuredipropylester, Phthalsäuredibutylester, Phthalsäurediisobutylester, 2-Methyl-3-zyklo- hexenkarbonsäuremethylester, Phthalsäuredihexylester behandelt. Die Emulsion enthält 0,01 Masse% Dodezylsulfat und 0,1 Masse% C12-C14-Kalziumalkylbenzolsulfonat. Der Verbrauch an Präparat beträgt 8 kg/ha. Als Kontrolle dienen Pflanzen, behandelt mit einem Verdünner ohne Sterilisationsmittel. Die Prüfergebnisse sind in der Tabelle 18 angeführt. […] Periode der Organogenese erhalten.

[3] = system: Winterweizens Sorte Kharkovskaya 81; format: in vivo, Winterweizen; settings: V. und VI. Periode, 2%ige wäßrige Emulsion, 12 kg/ha; for Prozentsatz des Ansetzens der Körner bei freier Bestäubung: control = 100
Text: as §1, §2, §3, §4, §5, §6
Pflanzen des Winterweizens Sorte Kharkovskaya 81 werden in der V. und VI. Periode der Organogenese (nach Kupermann) mit einer 2%igen wäßrigen Emulsion von Natriumsalz der 2-Methyl-3-zyklohexenkarbonsäure, Phthalsäuredihexylester, Ammoniumsalz der 2-Methyl-3-zyklohexenkarbon- säure, Phthalsäuredibutylester, Phthalsäurediallylester behandelt. Die Emulsion enthält 0,01 Masse% Dodezylsulfat und 0,1 Masse% C12-C14 -Kalziumalkylbenzolsulfonat. Der Verbrauch an Präparat beträgt 12 kg/ha.
Die Prüfergebnisse sind in der Tabelle 4 angeführt. Als Kontrolle dienten Pflanzen, behandelt ähnlich wie in Beispiel 1.

[4] = system: Winterweizens Sorte Priboi; format: in vivo, Winterweizen; settings: V. und VI. Periode, 2%ige wäßrige Emulsion, 12 kg/ha; for Prozentsatz des Ansetzens der Körner bei freier Bestäubung: control = 100
Text: as §1, §2, §3, §4, §5, §6
Pflanzen des Winterweizens Sorte Priboi werden in der V. und VI. Periode der Organogenese (nach Kupermann) mit einer 2%igen wäßrigen Emulsion von Kaliumsalz der 2-Methyl--3-zyklohexenkarbonsäure, 2-Methyl-3-zyklohexenkarbonsäure- methylester, Pnthalsäuredipropylester, Phthalsäurediisobutylester behandelt. Die Emulsion enthält 0,01 Masse% Dimethylsulfoxid und 0,1 Masse% C12-C14 -Kalziumalkylbenzolsulfonat. Der Verbrauch an Präparat beträgt 12 kg/ha. Als Kontrolle dienen Pflanzen, behandelt mit einem Verdünner ohne Sterilisationsmittel.

[5] = system: Tritikale Sorte Amfidiploid 206; format: in vivo; settings: V. Periode, 1%ige wäßrige Emulsion, 6 kg/ha; for Prozentsatz des Ansetzens bei freier Bestäubung: control = 100
Text: as §1, §2, §3, §4, §5, §6
Pflanzen Tritikale Sorte Amfidiploid 206 werden in der V.Periode der Organogenese (nach Kupermann) mit einer l%igen wäßrigen Emulsion von Phthalsäuredipropylester, Phthalsäurediisobutylester, Kaliumsalz der 2-Methyl-3-zyklohexenkarbon- säure, 2-Methyl-3-zyklohexenkarbonsäuremethylester, Ammoniumsalz der 2-Methyl-3-zyklohexenkarbonsäure behandelt. Die Emulsion enthält 0,01 Masse% Tetrahydrofuran und 0,1 Masse% C12-C14-Kalziumalkylbenzolsulfonat. Der Verbrauch an Präparat beträgt 6 kg/ha. Als Kontrolle dienen Pflanzen, behandelt mit einem Verdünner ohne Sterilisationsmittel.

In the case of CCCCCCOC(=O)c1ccccc1C(=O)OCCCCCC [Beispiel 11, Phthalsäuredihexylester], the “Kornzahl der Ähre bei freier Bestäubung” value [1] is reported as 36,0, the “Kornzahl der Ähre im Isolator” value [1] is reported as 0,1 and the “Prozentsatz der Sterilität” value [1] is reported as 99,7%. For the same molecule, the “Prozentsatz des Ansetzens bei freier Bestäubung” value [1] was 95,2%.
For CCCOC(=O)c1ccccc1C(=O)OCCC [Beispiel 98, Phthalsäuredipropylester], the “Kornzahl der Rispe bei freier Bestäubung” value [2] was 130,7, the “Kornzahl der Rispe im Isolator” value [2] was 0,0 and the “Prozentsatz der Sterilität” value [2] was 100,0%. For the same molecule, the “Prozentsatz des Ansetzens der Körner bei freier Bestäubung” value [2] was 89,1%.
For C=CCOC(=O)c1ccccc1C(=O)OCC=C [Beispiel 22, Phthalsäurediallylester], the “Kornzahl der Ähre bei freier Bestäubung” value [3] was 30,6, the “Kornzahl der Ähre im Isolator” value [3] was 3,1 and the “Prozentsatz der Sterilität” value [3] was 90,3%. For the same molecule, the “Prozentsatz des Ansetzens der Körner bei freier Bestäubung” value [3] was 90,3%.
CC1C=CCCC1C(=O)O.N (stereo not shown) [Beispiel 13, Ammoniumsalz der 2-Methyl-3-zyklohexenkarbonsäure] was tested, and the “Kornzahl der Ähre bei freier Bestäubung” value [1] was 36,9, the “Kornzahl der Ähre im Isolator” value [1] was 3,7 and the “Prozentsatz der Sterilität” value [1] was 89,2%. The “Prozentsatz des Ansetzens bei freier Bestäubung” value [1] was 97,6%.
CCCCOC(=O)c1ccccc1C(=O)OCCCC [Beispiel 21, Phthalsäuredibutylester] was tested, and the “Kornzahl der Ähre bei freier Bestäubung” value [3] was 28,6, the “Kornzahl der Ähre im Isolator” value [3] was 0,0 and the “Prozentsatz der Sterilität” value [3] was 100,0%. The “Prozentsatz des Ansetzens der Körner bei freier Bestäubung” value [3] was 84,4%.
In the case of CC1C=CCCC1C(=O)O.N (stereo not shown) [Beispiel 97, Ammoniumsalz der 2-Methyl-3-zyklo-nexenkarbonsäure], the “Kornzahl der Rispe bei freier Bestäubung” value [2] is reported as 121,6, the “Kornzahl der Rispe im Isolator” value [2] is reported as 0,0 and the “Prozentsatz der Sterilität” value [2] is reported as 100,0%. The “Prozentsatz des Ansetzens der Körner bei freier Bestäubung” value [2] was 82,9%.
CC(C)COC(=O)c1ccccc1C(=O)OCC(C)C [Beispiel 17, Phthalsäurediisobutylester] was tested, and the “Kornzahl der Ähre bei freier Bestäubung” value [4] was 33,7, the “Kornzahl der Ähre im Isolator” value [4] was 0,0 and the “Prozentsatz der Sterilität” value [4] was 100,0%. For the same molecule, the “Prozentsatz des Ansetzens der Körner bei freier Bestäubung” value [4] was 91,6%.
For CCCCCCOC(=O)c1ccccc1C(=O)OCCCCCC [Beispiel 102, Phthalsäuredihexylester], the “Kornzahl der Rispe bei freier Bestäubung” value [2] was 136,6, the “Kornzahl der Rispe im Isolator” value [2] was 0,0 and the “Prozentsatz der Sterilität” value [2] was 100,0%. The “Prozentsatz des Ansetzens der Körner bei freier Bestäubung” value [2] was 93,1%.
For CC1C=CCCC1C(=O)O.N (stereo not shown) [Beispiel 20, Ammoniumsalz der 2-Methyl-3-zyklohexenkarbon-säure], the “Kornzahl der Ähre bei freier Bestäubung” value [3] was 31,7, the “Kornzahl der Ähre im Isolator” value [3] was 0,0 and the “Prozentsatz der Sterilität” value [3] was 100,0%. The “Prozentsatz des Ansetzens der Körner bei freier Bestäubung” value [3] was 93,5%.
With COC(=O)C1CCC=CC1C (stereo not shown) [Beispiel 101, 2-Methyl-3-zyklo-hexenkarbonsäuremethylester] the “Kornzahl der Rispe bei freier Bestäubung” value [2] was 127,8, the “Kornzahl der Rispe im Isolator” value [2] was 0,0 and the “Prozentsatz der Sterilität” value [2] was 100,0%. The “Prozentsatz des Ansetzens der Körner bei freier Bestäubung” value [2] was 87,1%.
CC(C)COC(=O)c1ccccc1C(=O)OCC(C)C [Beispiel 100, Phthalsäurediisobutylester] was tested, and the “Kornzahl der Rispe bei freier Bestäubung” value [2] was 110,4, the “Kornzahl der Rispe im Isolator” value [2] was 0,0 and the “Prozentsatz der Sterilität” value [2] was 100,0%. The “Prozentsatz des Ansetzens der Körner bei freier Bestäubung” value [2] was 75,3%.
In the case of COC(=O)C1CCC=CC1C (stereo not shown) [Beispiel 15, 2-Methyl-3-zyklohexenkarbonsäure-methylester], the “Kornzahl der Ähre bei freier Bestäubung” value [4] is reported as 34,8, the “Kornzahl der Ähre im Isolator” value [4] is reported as 0,0 and the “Prozentsatz der Sterilität” value [4] is reported as 100,0%. For the same molecule, the “Prozentsatz des Ansetzens der Körner bei freier Bestäubung” value [4] was 94,6%.
In the case of CC1C=CCCC1C(=O)O (stereo not shown) [Beispiel 45, Kaliumsalz der 2-Methyl-3-zyklohexenkarbon-säure], the “Kornzahl der Ähre bei freier Bestäubung” value [5] is reported as 31,8, the “Kornzahl der Ähre im Isolator” value [5] is reported as 0,1 and the “Prozentsatz der Sterilität” value [5] is reported as 99,7%. For the same molecule, the “Prozentsatz des Ansetzens bei freier Bestäubung” value [5] was 87,3%.
CCOC(=O)c1ccccc1C(=O)OCC [Beispiel 9, Phthalsäurediäthylester] was tested, and the “Kornzahl der Ähre bei freier Bestäubung” value [1] was 36,8, the “Kornzahl der Ähre im Isolator” value [1] was 0,2 and the “Prozentsatz der Sterilität” value [1] was 99,4%. The “Prozentsatz des Ansetzens bei freier Bestäubung” value [1] was 97,4%.
With CCCCOC(=O)c1ccccc1C(=O)OCCCC [Beispiel 99, Phthalsäuredibutylester] the “Kornzahl der Rispe bei freier Bestäubung” value [2] was 127,9, the “Kornzahl der Rispe im Isolator” value [2] was 0,0 and the “Prozentsatz der Sterilität” value [2] was 100,0%. The “Prozentsatz des Ansetzens der Körner bei freier Bestäubung” value [2] was 87,9%.
In the case of CC(C)COC(=O)c1ccccc1C(=O)OCC(C)C [Beispiel 44, Phthalsäurediisobutylester], the “Kornzahl der Ähre bei freier Bestäubung” value [5] is reported as 32,5, the “Kornzahl der Ähre im Isolator” value [5] is reported as 0,0 and the “Prozentsatz der Sterilität” value [5] is reported as 100,0%. For the same molecule, the “Prozentsatz des Ansetzens bei freier Bestäubung” value [5] was 89,3%.
C=CCOC(=O)c1ccccc1C(=O)OCC=C [Beispiel 10, Phthalsäurediallylester] was tested, and the “Kornzahl der Ähre bei freier Bestäubung” value [1] was 35,6, the “Kornzahl der Ähre im Isolator” value [1] was 6,2 and the “Prozentsatz der Sterilität” value [1] was 82,0%. For the same molecule, the “Prozentsatz des Ansetzens bei freier Bestäubung” value [1] was 94,1%.
For CCCOC(=O)c1ccccc1C(=O)OCCC [Beispiel 43, Phthalsäuredipropylester], the “Kornzahl der Ähre bei freier Bestäubung” value [5] was 31,8, the “Kornzahl der Ähre im Isolator” value [5] was 0,0 and the “Prozentsatz der Sterilität” value [5] was 100,0%. The “Prozentsatz des Ansetzens bei freier Bestäubung” value [5] was 87,3%.
In the case of CC1C=CCCC1C(=O)[O-].[K+] (stereo not shown) [Beispiel 12, Kaliumsalz der 2-Methyl-3-zyklohexenkarbonsäure], the “Kornzahl der Ähre bei freier Bestäubung” value [1] is reported as 35,8, the “Kornzahl der Ähre im Isolator” value [1] is reported as 0,0 and the “Prozentsatz der Sterilität” value [1] is reported as 100,0%. The “Prozentsatz des Ansetzens bei freier Bestäubung” value [1] was 94,7%.
In the case of CC1C=CCCC1C(=O)[O-].[K+] (stereo not shown) [Beispiel 14, Kaliumsalz der 2-Methyl--3-zyklohexenkarbonsäure], the “Kornzahl der Ähre bei freier Bestäubung” value [4] is reported as 35,1, the “Kornzahl der Ähre im Isolator” value [4] is reported as 0,0 and the “Prozentsatz der Sterilität” value [4] is reported as 100,0%. For the same molecule, the “Prozentsatz des Ansetzens der Körner bei freier Bestäubung” value [4] was 95,4%.
With CCCCCCOC(=O)c1ccccc1C(=O)OCCCCCC [Beispiel 19, Phthalsäuredihexylester] the “Kornzahl der Ähre bei freier Bestäubung” value [3] was 30,8, the “Kornzahl der Ähre im Isolator” value [3] was 0,0 and the “Prozentsatz der Sterilität” value [3] was 100,0%. For the same molecule, the “Prozentsatz des Ansetzens der Körner bei freier Bestäubung” value [3] was 90,8%.
In the case of CCCOC(=O)c1ccccc1C(=O)OCCC [Beispiel 16, Pnthalsäuredipropylester], the “Kornzahl der Ähre bei freier Bestäubung” value [4] is reported as 32,6, the “Kornzahl der Ähre im Isolator” value [4] is reported as 5,6 and the “Prozentsatz der Sterilität” value [4] is reported as 82,6%. The “Prozentsatz des Ansetzens der Körner bei freier Bestäubung” value [4] was 88,6%.
In the case of CC1C=CCCC1C(=O)[O-].[Na+] (stereo not shown) [Beispiel 18, Natriumsalz der 2-Methyl-3-zyklohexenkarbonsäure], the “Kornzahl der Ähre bei freier Bestäubung” value [3] is reported as 32,6, the “Kornzahl der Ähre im Isolator” value [3] is reported as 0,2 and the “Prozentsatz der Sterilität” value [3] is reported as 99,4%. The “Prozentsatz des Ansetzens der Körner bei freier Bestäubung” value [3] was 96,2%.
In the case of CC1C=CCCC1C(=O)O (stereo not shown) [Beispiel 47, Ammoniumsalz der 2-Methyl-3-zyklohexenkarbonsäure], the “Kornzahl der Ähre bei freier Bestäubung” value [5] is reported as 37,5, the “Kornzahl der Ähre im Isolator” value [5] is reported as 6,8 and the “Prozentsatz der Sterilität” value [5] is reported as 79,7%. For the same molecule, the “Prozentsatz des Ansetzens bei freier Bestäubung” value [5] was 103,1%.
For COC(=O)C1CCC=CC1C (stereo not shown) [Beispiel 46, 2-Methyl-3-zyklohexenkarbonsäuremethylester], the “Kornzahl der Ähre bei freier Bestäubung” value [5] was 32,6, the “Kornzahl der Ähre im Isolator” value [5] was 0,0 and the “Prozentsatz der Sterilität” value [5] was 100,0%. The “Prozentsatz des Ansetzens bei freier Bestäubung” value [5] was 89,6%.

Source: patent EP0364581A1, “METHOD OF STERILIZING PLANT POLLEN” (VSESOJUZNY NAUCHNO-ISSLEDOVATELSKY INST. SELSKOKHOZYAISTV. …, priority 1988, dated 1989)
